Source: patent US9765092B2, “Tricyclic piperidine compounds” (ACTELION PHARMACEUTICALS LTD, priority 2013, dated 2017)

Each compound was assayed against human TPH1 (Homo sapiens (Human), UniProt P17752) (assay: Biochemical in vitro assay using fluorescence readout (TPH1 inhibition)). Settings: human TPH1, fluorescence readout.
Sequence of human TPH1 (P17752 whole entry): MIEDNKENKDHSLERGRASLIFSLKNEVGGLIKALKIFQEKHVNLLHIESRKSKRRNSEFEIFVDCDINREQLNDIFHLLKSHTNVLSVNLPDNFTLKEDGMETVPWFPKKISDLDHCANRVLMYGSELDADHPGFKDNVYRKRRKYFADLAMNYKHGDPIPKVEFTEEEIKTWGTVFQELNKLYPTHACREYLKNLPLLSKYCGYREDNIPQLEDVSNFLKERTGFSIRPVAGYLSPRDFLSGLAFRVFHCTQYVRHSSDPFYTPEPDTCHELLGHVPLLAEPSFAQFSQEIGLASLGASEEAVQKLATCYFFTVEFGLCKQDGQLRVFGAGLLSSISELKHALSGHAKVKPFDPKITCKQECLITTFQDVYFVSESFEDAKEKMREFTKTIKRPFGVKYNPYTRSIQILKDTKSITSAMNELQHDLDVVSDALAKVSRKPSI

SMILES	IC50
CCN(CC)C(=O)c1cc(F)c(C2c3c(nc4sc(C)nn34)CCN2C(=O)COc2ccc(NS(C)(=O)=O)nc2Cl)s1 (stereo not shown) [Example 1.64.1, 5-(6-(2-((2-chloro-6-(methylsulfonamido)pyridin-3-yl)oxy)acetyl)-2-methyl-5,6,7,8-tetrahydro-[1,3,4]thiadiazolo [2′,3′:2,3]imidazo[4,5-c]pyridin-5-yl)-N,N-diethyl-4-fluorothiophene-2-carboxamide]	21 nM
Cc1nn2c3c(nc2s1)CCN(C(=O)COc1ccc(N(C)C)nc1C)C3c1ccc(C2CC2)cc1F (stereo not shown) [Example 1.6.15, 1-(5-(4-cyclopropyl-2-fluorophenyl)-2-methyl-7,8-dihydro-[1,3,4]thiadiazolo[2′,3′:2,3]imidazo[4,5-c]pyridin-6(5H)-yl)-2-((6-(dimethylamino)-2-methylpyridin-3-yl)oxy)ethanone]	6 nM
Cc1nn2c3c(nc2s1)CCN(C(=O)COc1ccc(-c2ncco2)nc1Cl)C3c1ccc(C2CC2)cc1F (stereo not shown) [Example 1.6.29, 2-((2-chloro-6-(oxazol-2-yl)pyridin-3-yl)oxy)-1-(5-(4-cyclopropyl-2-fluorophenyl)-2-methyl-7,8-dihydro-[1,3,4]thiadiazolo[2′,3′:2,3]imidazo[4,5-c]pyridin-6(5H)-yl)ethanone]	17 nM
Cc1nn2c3c(nc2s1)CCN(C(=O)COc1ccc(N2CC(F)(F)C2)nc1Cl)C3c1ncc(Cl)cc1F (stereo not shown) [Example 1.33.2, 1-(5-(5-chloro-3-fluoropyridin-2-yl)-2-methyl-7,8-dihydro-[1,3,4]thiadiazolo[2′,3′:2,3]imidazo[4,5-c]pyridin-6(5H)-yl)-2-((2-chloro-6-(3,3-difluoroazetidin-1-yl)pyridin-3-yl)oxy)ethanone]	4 nM
Cc1ccc(OCC(=O)N2CCc3nc4sccn4c3C2c2cccnc2F)cc1 (stereo not shown) [Example 6.2.3, 1-(5-(2-fluoropyridin-3-yl)-7,8-dihydrothiazolo[2′,3′:2,3]-imidazo[4,5-c]pyridin-6(5H)-yl)-2-(p-tolyloxy)ethanone]	52 nM
Cc1nn2c3c(nc2s1)CCN(C(=O)COc1ccc(C(=O)N(C)C)nc1Cl)C3c1sc(C(=O)N(C)C)cc1F (stereo not shown) [Example 1.24.7, 6-chloro-5-(2-(5-(5-(dimethylcarbamoyl)-3-fluorothiophen-2-yl)-2-methyl-7,8-dihydro-[1,3,4]thiadiazolo[2′,3′:2,3]imidazo[4,5-c]pyridin-6(5H)-yl)-2-oxoethoxy)-N,N-dimethylpicolinamide]	5 nM
CCn1nc(C(=O)OC)cc1OCC(=O)N1CCc2nc3sc(C)nn3c2C1c1ccc(Cl)cc1F (stereo not shown) [Example 1.4.31, Methyl 5-(2-(5-(4-chloro-2-fluorophenyl)-2-methyl-7,8-dihydro-[1,3,4]thiadiazolo[2′,3′:2,3]imidazo[4,5-c]pyridin-6(5H)-yl)-2-oxoethoxy)-1-ethyl-1H-pyrazole-3-carboxylate]	40 nM
Cc1cnc(C2c3c(nc4sc(C)nn34)CCN2C(=O)COc2ccc(NS(C)(=O)=O)nc2Cl)c(F)c1 (stereo not shown) [Example 1.31.8, N-(6-chloro-5-(2-(5-(3-fluoro-5-methylpyridin-2-yl)-2-methyl-7,8-dihydro-[1,3,4]thiadiazolo[2′,3′:2,3]imidazo[4,5-c]pyridin-6(5H)-yl)-2-oxoethoxy)pyridin-2-yl)methanesulfonamide]	9 nM
O=C(COc1ccc(C(F)(F)F)cc1Cl)N1CCc2nc3sccn3c2C1c1cnn(-c2ccccc2)c1 (stereo not shown) [Example 6.13.8, 2-(2-chloro-4-(trifluoromethyl)phenoxy)-1-(5-(1-phenyl-1H-pyrazol-4-yl)-7,8-dihydrothiazolo[2′,3′:2,3]-imidazo[4,5-c]pyridin-6(5H)-yl)ethanone]	80 nM
CCc1nn2c3c(nc2s1)CCN(C(=O)COc1ccc(N2CCN(C)CC2)nc1Cl)C3c1ccc(Cl)cc1F (stereo not shown) [Example 3.1.4, 1-(5-(4-chloro-2-fluorophenyl)-2-ethyl-7,8-dihydro-[1,3,4]thiadiazolo[2′,3′:2,3]imidazo[4,5-c]pyridin-6(5H)-yl)-2-((2-chloro-6-(4-methylpiperazin-1-yl)pyridin-3-yl)oxy)ethanone]	10 nM
CCc1nc(C)ccc1OCC(=O)N1CCc2nc3sc(C)nn3c2C1c1ccc(Cl)cc1F (stereo not shown) [Example 1.4.2, 1-(5-(4-chloro-2-fluorophenyl)-2-methyl-7,8-dihydro-[1,3,4]thiadiazolo[2′,3′:2,3]imidazo[4,5-c]pyridin-6(5H)-yl)-2-((2-ethyl-6-methylpyridin-3-yl)oxy)ethanone]	13 nM
CN(C)C(=O)c1ccc(OCC(=O)N2CCc3nc4sccn4c3C2c2sccc2F)c(Cl)n1 (stereo not shown) [Example 6.8.2, 6-chloro-5-(2-(5-(3-fluorothiophen-2-yl)-7,8-dihydro-thiazolo[2′,3′:2,3]imidazo[4,5-c]pyridin-6(5H)-yl)-2-oxoethoxy)-N,N-dimethylpicolinamide]	5 nM
COC(=O)c1ccc(C2c3c(nc4sc(C)nn34)CCN2C(=O)COc2ccc(C(=O)NC3CC3)nc2Cl)c(F)c1 (stereo not shown) [Example 1.79.2, methyl-4-(6-(2-((2-chloro-6-(cyclopropylcarbamoyl)pyridin-3-yl)oxy)acetyl)-2-methyl-5,6,7,8-tetrahydro-[1,3,4]thiadiazolo[2′,3′:2,3]imidazo[4,5-c]pyridin-5-yl)-3-fluorobenzoate]	21 nM
CCc1nc(N2CCCS2(=O)=O)ccc1OCC(=O)N1CCc2nc3sc(C(F)(F)F)nn3c2C1c1sc(C)nc1C (stereo not shown) [Example 5.4.1, 1-(5-(2,4-dimethylthiazol-5-yl)-2-(trifluoromethyl)-7,8-dihydro-[1,3,4]thiadiazolo[2′,3′:2,3]imidazo[4,5-c]pyridin-6(5H)-yl)-2-((6-(1,1-dioxidoisothiazolidin-2-yl)-2-ethylpyridin-3-yl)oxy)ethanone]	25 nM
Cc1ccc(C2c3c(nc4sccn34)CCN2C(=O)COc2cccnc2Cl)c(F)c1 (stereo not shown) [Example 6.10.3, 2-((2-chloropyridin-3-yl)oxy)-1-(5-(2-fluoro-4-methyl-phenyl)-7,8-dihydrothiazolo[2′,3′:2,3]imidazo[4,5-c]-pyridin-6(5H)-yl)ethanone]	14 nM
Cc1cc(Cl)ccc1OCC(=O)N1CCc2nc3sccn3c2C1c1c(C)nn(C)c1C (stereo not shown) [Example 6.15.3, 2-(4-chloro-2-methylphenoxy)-1-(5-(1,3,5-trimethyl-1H-pyrazol-4-yl)-7,8-dihydrothiazolo[2′,3′:2,3]imidazo[4,5-c]pyridin-6(5H)-yl)ethanone]	20 nM
COc1nc(NS(C)(=O)=O)ccc1OCC(=O)N1CCc2nc3sc(C)nn3c2[C@@H]1c1ncc(C)cc1F [Example 1.31.20, (R)-N-(5-(2-(5-(3-fluoro-5-methylpyridin-2-yl)-2-methyl-7,8-dihydro-[1,3,4]thiadiazolo[2′,3′:2,3]imidazo[4,5-c]pyridin-6(5H)-yl)-2-oxoethoxy)-6-methoxypyridin-2-yl)methanesulfonamide]	77 nM
CCc1nc(NS(C)(=O)=O)ccc1OCC(=O)N1CCc2nc3sc(C(F)(F)F)nn3c2C1c1ccc(Cl)cc1F (stereo not shown) [Example 5.1.2, N-(5-(2-(5-(4-chloro-2-fluorophenyl)-2-(trifluoromethyl)-7,8-dihydro-[1,3,4]thiadiazolo[2′,3′:2,3]imidazo[4,5-c]pyridin-6(5H)-yl)-2-oxoethoxy)-6-ethylpyridin-2-yl)methanesulfonamide]	32 nM
CNS(=O)(=O)Nc1ccc(OCC(=O)N2CCc3nc4sc(C)nn4c3C2c2ccc(Cl)cc2F)c(Cl)n1 (stereo not shown) [Example 1.4.52, N-(6-chloro-5-(2-(5-(4-chloro-2-fluorophenyl)-2-methyl-7,8-dihydro-[1,3,4]thiadiazolo[2′,3′:2,3]imidazo[4,5-c]pyridin-6(5H)-yl)-2-oxoethoxy)pyridin-2-yl)-N′-methyl-sulfamide]	38 nM
CCc1nc(N2CCCS2(=O)=O)ccc1OCC(=O)N1CCc2nc3sc(CF)nn3c2C1c1ccc(Cl)cc1F (stereo not shown) [Example 7.1.3, 1-(5-(4-chloro-2-fluorophenyl)-2-(fluoromethyl)-7,8-dihydro-[1,3,4]thiadiazolo[2′,3′:2,3]imidazo[4,5-c]pyridin-6(5H)-yl)-2-((6-(1,1-dioxidoisothiazolidin-2-yl)-2-ethylpyridin-3-yl)oxy)ethan-1-one]	6 nM
Cc1nn2c3c(nc2s1)CCN(C(=O)COc1ccc(F)cc1Cl)C3c1ccc(C2CC2)cc1F (stereo not shown) [Example 1.6.2, 2-(2-chloro-4-fluorophenoxy)-1-(5-(4-cyclopropyl-2-fluorophenyl)-2-methyl-7,8-dihydro-[1,3,4]thiadiazolo [2′,3′:2,3]imidazo[4,5-c]pyridin-6(5H)-yl)ethanone]	10 nM
CNC(=O)c1cc(F)c(C2c3c(nc4sc(C)nn34)CCN2C(=O)COc2cc(F)cnc2Cl)s1 (stereo not shown) [Example 1.25.9, 5-(6-(2-((2-chloro-5-fluoropyridin-3-yl)oxy)acetyl)-2-methyl-5,6,7,8-tetrahydro-[1,3,4]thiadiazolo[2′,3′:2,3]imidazo[4,5-c]pyridin-5-yl)-4-fluoro-N-methylthiophene-2-carboxamide]	47 nM
Cc1nn2c3c(nc2s1)CCN(C(=O)COc1ccc(N(C)C)nc1Cl)C3c1cnc(N2CCOCC2)s1 (stereo not shown) [Example 1.7.4, 2-((2-chloro-6-(dimethylamino)pyridin-3-yl)oxy)-1-(2-methyl-5-(2-morpholinothiazol-5-yl)-7,8-dihydro-[1,3,4]thiadiazolo[2′,3′:2,3]imidazo[4,5-c]pyridin-6(5H)-yl)ethanone]	408 nM
COC(=O)c1csc(C2c3c(nc4sc(C)nn34)CCN2C(=O)COc2ccc(N3CCOCC3)nc2Cl)c1 (stereo not shown) [Example 1.21.1, Methyl 5-(6-(2-((2-chloro-6-morpholinopyridin-3-yl)oxy)acetyl)-2-methyl-5,6,7,8-tetrahydro-[1,3,4]thiadiazolo[2′,3′:2,3]imidazo[4,5-c]pyridin-5-yl)thiophene-3-carboxylate]	5 nM
CNC(=O)c1cc(F)c(C2c3c(nc4sc(C)nn34)CCN2C(=O)COc2ccc(C(F)(F)F)nc2Cl)s1 (stereo not shown) [Example 1.25.3, 5-(6-(2-((2-chloro-6-(trifluoromethyl)pyridin-3-yl)oxy)acetyl)-2-methyl-5,6,7,8-tetrahydro-[1,3,4]thiadiazolo [2′,3′:2,3]imidazo[4,5-c]pyridin-5-yl)-4-fluoro-N-methylthiophene-2-carboxamide]	35 nM
